Assays:
[1] = Inhibition of HIV1 integrase strand transfer activity; design: species or system Human immunodeficiency virus 1
[2] = system: Human immunodeficiency virus 1; assay: Antiviral activity against HIV1 infected MT4 cells in presence of 10% FBS; assay type: functional; details: Human immunodeficiency virus 1, MT4
[3] = system: Human immunodeficiency virus 1; assay: Antiviral activity against HIV1 infected MT4 cells in presence of 50% NHS; assay type: functional, organism-based; details: Human immunodeficiency virus 1, MT4

For CC1CN(C)C(=O)c2c(O)c(C(=O)NCc3ccc(F)cc3)nn21 (stereo not given), which IC50 [1] is on record?
Its IC50 is 0.013 µM.

With CNC(=O)c1nn2c(c1O)C(=O)N(Cc1ccc(F)cc1)CC2 as the molecule, how does the IC50 [1] read?
The IC50 was 0.04 µM.

What about the IC95 [2] of the same molecule?
The IC95 was 5 µM.

And the IC50 [3]?
Its IC50 is over 10 µM.

Which IC50 [1] does the source give for CN1CCn2nc(C(=O)NCc3ccc(F)cc3)c(O)c2C1=O here?
Its IC50 is at most 0.01 µM.

And the IC95 [2]?
The IC95 was 0.63 µM.

What about the IC95 [3] of the same molecule?
Its IC95 is 2.5 µM.

Which IC50 [1] does the source give for CN1C(=O)c2c(O)c(C(=O)NCc3ccc(F)cc3)nn2CC1c1ccccc1 (stereo not given) here?
Its IC50 is 0.11 µM.

With CNC(=O)c1cc(F)ccc1CNC(=O)c1nn2c(c1O)C(=O)N(C)C[C@H]2c1ccccc1 as the molecule, how does the IC50 [1] read?
The IC50 was 0.062 µM.

And the IC95 [2]?
The IC95 was 0.25 µM.

What about the IC95 [3] of the same molecule?
The IC95 was 0.25 µM.

For CN1CC(c2ccccc2)n2nc(C(=O)NCc3ccc(F)cc3)c(O)c2C1=O (stereo not given), which IC50 [1] is on record?
Its IC50 is at most 0.01 µM.

And the IC95 [2]?
Its IC95 is 0.05 µM.

What about the IC95 [3] of the same molecule?
The IC95 was 0.31 µM.

Which IC50 [1] does the source give for CNC(=O)c1nn2c(c1O)C(=O)N(Cc1ccc(F)cc1)CC2c1ccccc1 (stereo not given) here?
Its IC50 is 0.13 µM.

What about the IC95 [2] of the same molecule?
Its IC95 is 10 µM.

What about the IC95 [3] of the same molecule?
The IC95 was over 10 µM.

Which results are given for CN1CC(c2cccnc2)n2nc(C(=O)NCc3ccc(F)cc3)c(O)c2C1=O (stereo not given)?
IC50 [1]: ≤ 0.01 µM; IC95 [2]: 0.25 µM; IC95 [3]: 0.5 µM

Which IC50 [1] does the source give for CNC(=O)c1cc(F)ccc1CNC(=O)c1nn2c(c1O)C(=O)N(C)C[C@@H]2c1ccccc1 here?
Its IC50 is 0.074 µM.

And the IC95 [2]?
Its IC95 is 0.063 µM.

What about the IC95 [3] of the same molecule?
Its IC95 is 0.063 µM.

Which IC50 [1] does the source give for CC(C)C1CN(C)C(=O)c2c(O)c(C(=O)NCc3ccc(F)cc3)nn21 (stereo not given) here?
The IC50 was 0.02 µM.

And the IC95 [2]?
The IC95 was 0.063 µM.

And the IC95 [3]?
The IC95 was 0.25 µM.

For CNC(=O)c1cccc(C2CN(C)C(=O)c3c(O)c(C(=O)NCc4ccc(F)cc4)nn32)c1 (stereo not given), which IC50 [1] is on record?
Its IC50 is at most 0.01 µM.

And the IC95 [2]?
The IC95 was 1 µM.

What about the IC95 [3] of the same molecule?
Its IC95 is 1 µM.

With CN1CCn2cc(C(=O)NCc3ccc(F)cc3)c(O)c2C1=O as the molecule, how does the IC50 [1] read?
The IC50 was 0.4 µM.

Which IC50 [1] does the source give for CC1Cn2nc(C(=O)NCc3ccc(F)cc3)c(O)c2C(=O)N1C (stereo not given) here?
Its IC50 is 0.04 µM.

Which IC50 [1] does the source give for CN1CCCn2nc(C(=O)NCc3ccc(F)cc3)c(O)c2C1=O here?
Its IC50 is 0.47 µM.

For CN1CC(c2csc(N)n2)n2nc(C(=O)NCc3ccc(F)cc3)c(O)c2C1=O (stereo not given), which IC50 [1] is on record?
The IC50 was at most 0.01 µM.

What about the IC95 [2] of the same molecule?
The IC95 was 0.5 µM.

What about the IC95 [3] of the same molecule?
Its IC95 is 1 µM.

— ChEMBL document CHEMBL1142310, “Design and synthesis of substituted 4-oxo-4,5,6,7-tetrahydropyrazolo[1,5-a]pyrazine-2-carboxamides, novel HIV-1 integrase inhibitors” (Bioorg Med Chem Lett, 2008)
